Several values for one entry are separate records, joined by “and”; a condition that tells them apart may be missing. Equal entries are not always repeated.
Legend:
Ig-MXP3 cells = experiment: Direct cytotoxicity; type: cell-based
ABCG2 = target: T1, ABCG2 (Homo sapiens, UniProt Q9UNQ0); experiment: JC-1 efflux inhibition dose-response, flow cytometry, Ig-MXP3 cells; type: cell-based; details: quotient of average ABCB1 IC50 and average ABCG2 IC50, JC-1 efflux assay
T1 sequence (Q9UNQ0 1-655): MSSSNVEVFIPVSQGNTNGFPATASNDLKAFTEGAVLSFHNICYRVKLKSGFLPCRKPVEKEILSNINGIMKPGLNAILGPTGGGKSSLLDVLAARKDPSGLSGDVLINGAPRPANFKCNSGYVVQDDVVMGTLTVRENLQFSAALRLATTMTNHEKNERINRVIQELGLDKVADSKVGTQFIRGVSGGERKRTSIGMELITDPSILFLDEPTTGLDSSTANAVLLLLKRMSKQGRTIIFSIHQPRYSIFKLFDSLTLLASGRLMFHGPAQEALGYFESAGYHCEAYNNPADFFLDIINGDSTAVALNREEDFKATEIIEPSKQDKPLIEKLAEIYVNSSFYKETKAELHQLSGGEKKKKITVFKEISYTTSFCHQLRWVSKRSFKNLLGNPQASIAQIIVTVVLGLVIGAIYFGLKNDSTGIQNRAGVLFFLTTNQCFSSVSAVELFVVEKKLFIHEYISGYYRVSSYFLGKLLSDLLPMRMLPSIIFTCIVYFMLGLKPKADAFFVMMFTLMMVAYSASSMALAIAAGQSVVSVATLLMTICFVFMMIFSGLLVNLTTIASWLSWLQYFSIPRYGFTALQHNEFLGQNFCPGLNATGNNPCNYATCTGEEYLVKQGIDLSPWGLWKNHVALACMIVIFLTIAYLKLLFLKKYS

## O=C(NCCCN1CCOCC1)c1cnn2c(-c3ccccc3)cc(-c3ccccc3)nc12 [Compound 6, reversan, reference compound]
Ig-MXP3 cells
  ABCG2 TD50: >100 µM
Jurkat-DNR cells
  ABCB1 TD50: 7.04 µM

## O=C(c1ccco1)N1CCN(c2cc(-c3ccccc3)nc3cc(-c4cccc(Cl)c4)nn23)CC1 [Compound 8]
Ig-MXP3 cells
  ABCG2 TD50: 6.00 µM
Jurkat-DNR cells
  ABCB1 TD50: 6.77 µM
ABCG2
  ∼Fold G2 Selective: 6.4 fold

## Cc1nc2cc(-c3cccc(Cl)c3)nn2c(N2CCN(C(=O)c3ccco3)CC2)c1C [Compound 9]
Ig-MXP3 cells
  ABCG2 TD50: 47.40 µM
Jurkat-DNR cells
  ABCB1 TD50: >100 µM
ABCG2
  ∼Fold G2 Selective: 3.2 fold

## Cc1cc(N2CCN(C(=O)c3ccco3)CC2)n2nc(-c3cccc(Cl)c3)cc2n1 [Compound 10]
ABCG2
  ∼Fold G2 Selective: 2.1 fold

## O=C(c1ccoc1)N1CCN(c2cc(-c3ccccc3)nc3cc(-c4cccc(Cl)c4)nn23)CC1 [Compound 11]
ABCG2
  ∼Fold G2 Selective: 7 fold and 7.2 fold

## O=C(c1ccsc1)N1CCN(c2cc(-c3ccccc3)nc3cc(-c4cccc(Cl)c4)nn23)CC1 [Compound 12]
ABCG2
  ∼Fold G2 Selective: 2.8 fold

## O=C(c1ccccc1)N1CCN(c2cc(-c3ccccc3)nc3cc(-c4cccc(Cl)c4)nn23)CC1 [Compound 13]
ABCG2
  ∼Fold G2 Selective: 2.4 fold

## COc1ccccc1C(=O)N1CCN(c2cc(-c3ccccc3)nc3cc(-c4cccc(Cl)c4)nn23)CC1 [Compound 14]
ABCG2
  ∼Fold G2 Selective: 1.0 fold

## COc1cccc(C(=O)N2CCN(c3cc(-c4ccccc4)nc4cc(-c5cccc(Cl)c5)nn34)CC2)c1 [Compound 15]
Ig-MXP3 cells
  ABCG2 TD50: >100 µM
Jurkat-DNR cells
  ABCB1 TD50: >100 µM
ABCG2
  ∼Fold G2 Selective: 0.6 fold

## COc1ccc(C(=O)N2CCN(c3cc(-c4ccccc4)nc4cc(-c5cccc(Cl)c5)nn34)CC2)cc1 [Compound 16]
ABCG2
  ∼Fold G2 Selective: 1.0 fold

## O=C(c1ccccc1Cl)N1CCN(c2cc(-c3ccccc3)nc3cc(-c4cccc(Cl)c4)nn23)CC1 [Compound 17]
ABCG2
  ∼Fold G2 Selective: 1.4 fold

## O=C(c1cccc(Cl)c1)N1CCN(c2cc(-c3ccccc3)nc3cc(-c4cccc(Cl)c4)nn23)CC1 [Compound 18]
ABCG2
  ∼Fold G2 Selective: 1.4 fold

## O=C(c1ccc(Cl)cc1)N1CCN(c2cc(-c3ccccc3)nc3cc(-c4cccc(Cl)c4)nn23)CC1 [Compound 19]
ABCG2
  ∼Fold G2 Selective: 0.9 fold

## O=C(c1cccnc1)N1CCN(c2cc(-c3ccccc3)nc3cc(-c4cccc(Cl)c4)nn23)CC1 [Compound 20]
Ig-MXP3 cells
  ABCG2 TD50: 10.30 µM
Jurkat-DNR cells
  ABCB1 TD50: 4.72 µM
ABCG2
  ∼Fold G2 Selective: 2.5 fold

## O=C(c1ccncc1)N1CCN(c2cc(-c3ccccc3)nc3cc(-c4cccc(Cl)c4)nn23)CC1 [Compound 21]
Ig-MXP3 cells
  ABCG2 TD50: 28.30 µM
Jurkat-DNR cells
  ABCB1 TD50: 10.90 µM
ABCG2
  ∼Fold G2 Selective: 1.1 fold

## O=C(C1CCCCC1)N1CCN(c2cc(-c3ccccc3)nc3cc(-c4cccc(Cl)c4)nn23)CC1 [Compound 22]
ABCG2
  ∼Fold G2 Selective: 1.2 fold

## CC(=O)N1CCN(c2cc(-c3ccccc3)nc3cc(-c4cccc(Cl)c4)nn23)CC1 [Compound 23]
ABCG2
  ∼Fold G2 Selective: 0.9 fold

## O=C(Cc1ccccc1)N1CCN(c2cc(-c3ccccc3)nc3cc(-c4cccc(Cl)c4)nn23)CC1 [Compound 24]
Ig-MXP3 cells
  ABCG2 TD50: >100 µM
Jurkat-DNR cells
  ABCB1 TD50: 17.80 µM
ABCG2
  ∼Fold G2 Selective: 0.8 fold

## O=C(c1ccoc1)N1CCN(c2cc(-c3ccccc3F)nc3cc(-c4cccc(Cl)c4)nn23)CC1 [Compound 26]
ABCG2
  ∼Fold G2 Selective: 2.4 fold

## O=C(c1ccoc1)N1CCN(c2cc(-c3ccc(F)cc3)nc3cc(-c4cccc(Cl)c4)nn23)CC1 [Compound 27]
ABCG2
  ∼Fold G2 Selective: 2.3 fold

## COc1cccc(-c2cc(N3CCN(C(=O)c4ccoc4)CC3)n3nc(-c4cccc(Cl)c4)cc3n2)c1 [Compound 28]
ABCG2
  ∼Fold G2 Selective: 1.9 fold

## COc1ccc(-c2cc(N3CCN(C(=O)c4ccoc4)CC3)n3nc(-c4cccc(Cl)c4)cc3n2)cc1 [Compound 29]
ABCG2
  ∼Fold G2 Selective: 2.4 fold

## O=C(c1ccoc1)N1CCN(c2cc(-c3cccnc3)nc3cc(-c4cccc(Cl)c4)nn23)CC1 [Compound 30]
Ig-MXP3 cells
  ABCG2 TD50: 5.77 µM
Jurkat-DNR cells
  ABCB1 TD50: 5.33 µM
ABCG2
  ∼Fold G2 Selective: 2.9 fold

## O=C(c1ccoc1)N1CCN(c2cc(-c3ccncc3)nc3cc(-c4cccc(Cl)c4)nn23)CC1 [Compound 31]
Ig-MXP3 cells
  ABCG2 TD50: 57.80 µM
Jurkat-DNR cells
  ABCB1 TD50: 13.50 µM
ABCG2
  ∼Fold G2 Selective: 2.5 fold

## C#Cc1cc(N2CCN(C(=O)c3ccoc3)CC2)n2nc(-c3cccc(Cl)c3)cc2n1 [Compound 32]
ABCG2
  ∼Fold G2 Selective: 4.3 fold

## O=C(c1ccoc1)N1CCN(c2cc(-c3ccccc3)nc3cc(-c4ccc(Br)cc4)nn23)CC1 [Compound 33]
ABCG2
  ∼Fold G2 Selective: 1.7 fold

## COc1ccccc1-c1cc2nc(-c3ccccc3)cc(N3CCN(C(=O)c4ccoc4)CC3)n2n1 [Compound 34]
Ig-MXP3 cells
  ABCG2 TD50: 6.50 µM
Jurkat-DNR cells
  ABCB1 TD50: 4.37 µM
ABCG2
  ∼Fold G2 Selective: 4.8 fold

## COc1cccc(-c2cc3nc(-c4ccccc4)cc(N4CCN(C(=O)c5ccoc5)CC4)n3n2)c1 [Compound 35]
ABCG2
  ∼Fold G2 Selective: 2.0 fold

## COc1ccc(-c2cc3nc(-c4ccccc4)cc(N4CCN(C(=O)c5ccoc5)CC4)n3n2)cc1 [Compound 36]
Ig-MXP3 cells
  ABCG2 TD50: >100 µM
Jurkat-DNR cells
  ABCB1 TD50: 5.54 µM
ABCG2
  ∼Fold G2 Selective: 1.2 fold

## COc1ccccc1-c1cc2nc(-c3ccccc3)cc(N3CCN(C(=O)c4ccco4)CC3)n2n1 [Compound 37]
ABCG2
  ∼Fold G2 Selective: 2.9 fold

## COc1cccc(-c2cc3nc(-c4ccccc4)cc(N4CCN(C(=O)c5ccco5)CC4)n3n2)c1 [Compound 38]
ABCG2
  ∼Fold G2 Selective: 3.4 fold

## CCCN(CCc1ccccc1)C(=O)[C@@H]1OC(C(=O)O)=C[C@H](O)[C@H]1NC(C)=O [Compound 39]
ABCG2
  ∼Fold G2 Selective: 2.7 fold

## Cc1cccc(-c2cc3nc(-c4ccccc4)cc(N4CCN(C(=O)c5ccco5)CC4)n3n2)c1 [Compound 40]
ABCG2
  ∼Fold G2 Selective: 1.6 fold

## COc1ccccc1-c1cc2nc(-c3ccccc3)cc(N3CCN(C(=O)c4ccccc4)CC3)n2n1 [Compound 41]
ABCG2
  ∼Fold G2 Selective: 3.0 fold

## O=C(c1ccccc1)N1CCN(c2cc(-c3ccccc3)nc3cc(-c4cccc(F)c4)nn23)CC1 [Compound 42]
ABCG2
  ∼Fold G2 Selective: 1.9 fold

## O=C(c1ccccc1)N1CCN(c2cc(-c3ccccc3)nc3cc(-c4ccc(F)cc4)nn23)CC1 [Compound 43]
ABCG2
  ∼Fold G2 Selective: 2.0 fold

## COc1ccccc1-c1cc(N2CCN(C(=O)c3ccoc3)CC2)n2nc(-c3ccccc3)cc2n1 [Compound 44]
Ig-MXP3 cells
  ABCG2 TD50: 7.62 µM
Jurkat-DNR cells
  ABCB1 TD50: 3.73 µM
ABCG2
  ∼Fold G2 Selective: 1.2 fold

## COc1ccc(-c2cc(N3CCN(C(=O)c4ccoc4)CC3)n3nc(-c4ccccc4)cc3n2)cc1 [Compound 45]
ABCG2
  ∼Fold G2 Selective: 1.9 fold

## O=C(c1ccoc1)N1CCN(c2cc(-c3ccccc3F)nc3cc(-c4ccccc4)nn23)CC1 [Compound 46]
ABCG2
  ∼Fold G2 Selective: 10.0 fold

## O=C(c1ccoc1)N1CCN(c2cc(-c3cccc(F)c3)nc3cc(-c4ccccc4)nn23)CC1 [Compound 47]
ABCG2
  ∼Fold G2 Selective: 4.2 fold

## O=C(c1ccoc1)N1CCN(c2cc(-c3ccc(F)cc3)nc3cc(-c4ccccc4)nn23)CC1 [Compound 48]
ABCG2
  ∼Fold G2 Selective: 1.8 fold

## CC(C)(C)c1cc(N2CCN(C(=O)c3ccoc3)CC2)n2nc(-c3ccccc3)cc2n1 [Compound 49]
ABCG2
  ∼Fold G2 Selective: 0.5 fold

## O=C(c1ccoc1)N1CCN(c2cc(-c3ccco3)nc3cc(-c4ccco4)nn23)CC1 [Compound 52]
Ig-MXP3 cells
  ABCG2 TD50: >100 µM
Jurkat-DNR cells
  ABCB1 TD50: 1.93 µM

## O=C(c1ccoc1)N1CCN(c2cc(-c3ccco3)nc3cc(-c4cccc(Cl)c4)nn23)CC1 [Compound 53]
Ig-MXP3 cells
  ABCG2 TD50: 10.80 µM
Jurkat-DNR cells
  ABCB1 TD50: 8.53 µM

## COc1cccc(-c2cc3nc(-c4ccco4)cc(N4CCN(C(=O)c5ccoc5)CC4)n3n2)c1 [Compound 56]
Ig-MXP3 cells
  ABCG2 TD50: >100 µM
Jurkat-DNR cells
  ABCB1 TD50: 5.52 µM

## COc1ccc(-c2cc3nc(-c4ccco4)cc(N4CCN(C(=O)c5ccoc5)CC4)n3n2)cc1 [Compound 57]
Ig-MXP3 cells
  ABCG2 TD50: >100 µM
Jurkat-DNR cells
  ABCB1 TD50: >100 µM

## O=C(c1ccoc1)N1CCN(c2cc(-c3ccoc3)nc3cc(-c4ccccc4)nn23)CC1 [Compound 61]
Ig-MXP3 cells
  ABCG2 TD50: 18.30 µM
Jurkat-DNR cells
  ABCB1 TD50: 7.33 µM

## COc1cccc(-c2cc(N3CCN(C(=O)c4ccoc4)CC3)n3nc(-c4ccccc4)cc3n2)c1 [Compound 65]
Ig-MXP3 cells
  ABCG2 TD50: 67.80 µM
Jurkat-DNR cells
  ABCB1 TD50: 5.77 µM
ABCG2
  ∼Fold G2 Selective: 83 fold

## CC(=O)N1CCN(c2cc(-c3ccco3)nc3cc(-c4ccccc4)nn23)CC1 [Compound 74]
Ig-MXP3 cells
  ABCG2 TD50: >100 µM
Jurkat-DNR cells
  ABCB1 TD50: 10.10 µM

## CC(=O)N1CCN(c2cc(-c3ccco3)nc3cc(-c4cccc(Cl)c4)nn23)CC1 [Compound 87]
Ig-MXP3 cells
  ABCG2 TD50: >100 µM
Jurkat-DNR cells
  ABCB1 TD50: 17.60 µM

## COc1cccc(-c2cc3nc(-c4ccco4)cc(N4CCN(C(C)=O)CC4)n3n2)c1 [Compound 88]
Ig-MXP3 cells
  ABCG2 TD50: >100 µM
Jurkat-DNR cells
  ABCB1 TD50: 49.30 µM

## XR9051 [Compound 2, reference compound]
Ig-MXP3 cells
  ABCG2 TD50: 21.40 µM
Jurkat-DNR cells
  ABCB1 TD50: 1.97 µM

From publication PMC3623016 (Journal of biomolecular screening, 2012)
